# Test results published in patent publication US20090106856A1, “Selection System for Wheat” (BASF PLANT SCIENCE GMBH, priority 2005, published 2009).
# How the values were obtained:
# [1] = tested on: wheat variety Canon immature embryos / embryogenic callus; assay: Agrobacterium-mediated transformation with dsdA constructs and selection of transgenic plants; type: cell-based, Triticum aestivum
# Method: (§1) Explants were washed with PAW-Inf. medium and immersed in the above-described bacterial suspension for 2 h at 26° C. At the end of infection the explants were placed with scutellum side up on PAW-1 medium. The residual bacterial suspension is removed by pipeting out and air-drying of the infected embryos by opening plates for 15 min on the sterile banch. Plates were sealed with Parafilm and placed in thermostat at 26° C. in the dark for 5-6 days co-cultivation.
# (§2) After co-cultivation period the explants were washed with sterile water and 500 mg/L Cefotaxime and filter paper dried before being transferred to PAW-2 callus induction-recovery medium containing 160 mg/l Timentin for 14 days (7 days dark/7 days semi light; 13.2 μmol m^−2s^−1). Explants with embryogenic callus were subculture to PAW-2 callus-proliferation medium containing 160 mg/l Timentin and corresponding selection 5 mM D-serine or 5 mM D-alanine or 3 mg/l bialaphos. In some experiments the selection on D-amino acids was starting on PAW-2 callus induction medium 0, 7, 14 and 21 days after co cultivation. Embryogenic callus was subculture twice on fresh selective medium for callus maintaining and regeneration on PAW-4 medium with corresponding selection. Cultures were maintained at 23° C. on light 60.2 μmol m^−2s^−1. Regenerated shoots were subculture to PAW-5 hormone free medium with corresponding selection (5 mM D-serine or 5 mM D-alanine or 3 mg/l bialaphos) for further growth and rooting. All media used in the transformation experiments were filter sterilized and are listed in above. After analyses transgenic plants were transferred to soil and placed for further growth in greenhouse. 1.4 Molecular and expression studies of the transgenic plants
# Freshly isolated immature embryos from Canon were inoculated with Agrobacterium. In all experiments Agrobacterium tumefacience LBA4404 (pSB1/pRLM167) (SEQ ID NO: 11) was used. The pRLM167 is a super binary vector containing p-ZmUBI+I::c-dsdA::t-OCS and p-ZmUBI+I::c-PAT::t-OCS selectable marker genes in expression cassettes (FIG. 1). Following co cultivation the explants were given a chance to recover for 14 days on callus induction selection free medium containing 160 mg/l Timentin to inhibit bacterial growth. Under these conditions 59% to 76% of the embryogenic callus developed over the all surface of immature embryos. Embryogenic callus was split in two and transferred to two the corresponding selection medium containing 5-mM D-serine or 3 mg/l bialaphos. During subsequent growth of callus, regeneration of plantlets, shoots elongation and roots formation the respective selection pressure was maintained in each of the corresponding medium. After 7 weeks of selection 38%-47% of the embryogenic calli regenerated with plants when selected on bialaphos or on D-serine respectively. Further selection of the regenerants was performed during the elongation and rooting of the regenerants for an additional 3 weeks. Intact in vitro transgenic shoots were selected within 10-12 weeks after co cultivation.
# Freshly isolated immature embryos from Canon were inoculated with Agrobacterium. In all experiments Agrobacterium tumefacience super binary vector system based on LBA4404 (pSB1) was used. The constructs pRLM179, pRLM166, pRLM151 (FIG. 2. I, II and III) containing dsdA selectable marker gene alone or with a second gene (ahas or gusINT) were used for transformation. The explants were cultured on selection medium right away after co-cultivation with Agrobacterium or were cultivated on callus induction—recovery medium for 7, 14 and 21 days containing only 160 mg/l Timentin for inhibiting bacterial growth. Furthermore calli were sub cultured to fresh selection PAW-2 medium for proliferation. Embryogenic calli were transferred on PAW-4 selection medium for regeneration 5-6 weeks after transformation. The emerging plantlets were further grown and rooted on PAW-5 hormone free selection medium. […]
# [2] = tested on: Transgenic T1 dao1 seedlings; assay: Negative selection of transgenic T1 dao1 seedlings; type: in vivo, Triticum aestivum
# Method: T1 immature embryos were assayed with bioassay for germination of immature embryos on selection. […] Furthermore transgenic T1 seedlings were tested for negative selection using D-isoleucine and D-valine containing medium. Transgenic T1 dao1 seedlings were sensitive to the concentrations range from 10 to 30 mM D-isoleucine and 15-20 mM D-valine (FIG. 11).
# wheat callus = assay: Killing curve: callus growth and regeneration under constant selection pressure; type: cell-based, Triticum aestivum
# Method: To define the sensitivity of wheat tissues during transformation when D-Serine and D-Alanine are present as selection agents regeneration experiments with immature embryos were designed. Immature embryos were immersed in PAWinf medium and subjected to all steps of callus induction, callus maintaining and regeneration in transformation protocol above.
# Sensitivity of callus tissue under constant selection pressure were evaluated using range of concentrations: 0.5 mM, 1 mM, 3 mM, 5 mM, 10 mM, 25 mM, 50 mM. Experiments were performed in triplicates. Percentage of embryos forming embryos-genic callus was scored on PAW-4 regeneration medium. At the end of shoots elongation regeneration capacity of the calluses was scored as calluses regenerating shoots and number of shoots per callus.
# Range of the tested concentrations 0.5-50 mM D-ser and D-ala are evaluated in replicating regeneration experiments. The effect of selective compounds is estimated during callus growth and shoots formation following transformation procedure on medium with D-serine and D-alanine (Table 4).
# wheat in vitro shoots = assay: Killing curve: rooting of in vitro shoots; type: in vivo, Triticum aestivum
# Text: […] The effect of selection agents was observed two and tree weeks later. Number of plantlets with growing roots and green leaves were scored.
# In vitro regenerated shoots from media lacking the selection compounds were collected and transferred on medium for rooting (½ MS salts hormone free). Roots formation, growth of the shoots and leaves elongation was scored two and four weeks later after sub culturing of these shoots to the medium supplemented with D-amino acids (Table 5).
# wheat immature embryos = assay: Killing curve: in vitro germination of immature embryos and seedling growth; type: in vivo, Triticum aestivum
# Method: In order to establish effective concentrations of D-serine and D-alanine on inhibiting growth of tissue cultured wheat cells, a bioassay system using immature embryos was applied. Immature embryos 2 mm in length were dissected onto germination medium with the selection agents, and incubated at 27° C. in light. The number of germinated embryos with well-developed shoots and brunched shoots were scored after 14 days.
# Immature embryos 2 mm in size were isolated from the sterilized caryopses. The embryos were cultured on PAW-5 hormone free medium for germination in dark. Seedlings growth on D-amino acid selection was observed after 2 weeks. Most of the embryos germinated but the seedlings growth was inhibited when roots emerge and the uptake of the selection compound was direct from the medium. The Lethal Dose (LD 100) for seedlings germination and growth was 1 mM concentration of both D-amino acids tested (Table 6). Seedlings derived from embryos isolated from the immature caryopsis without endosperms were susceptible to the selection in concentration higher than 1 mM (FIG. 8).
# [3] = tested on: wheat variety Canon immature embryos / embryogenic callus; assay: Agrobacterium-mediated transformation with dao1 constructs and selection of transgenic plants; type: cell-based, Triticum aestivum; details: pRLM205 (dao1 original), 5 mM selection
# Method: as §1, §2
# Freshly isolated immature embryos from Canon were inoculated with Agrobacterium. In all experiments Agrobacterium tumefactions super binary vector system based on LBA4404 (pSB1) was used. The constructs pRLM205 containing the original dao1 gene and pRLM226 carrying modified Daol. Both constructs contain gusINT reporter marker gene (FIGS. 3, I and II). Following co cultivation the explants were transferred on callus induction PAW-2 selection free medium containing 160 mg/l Timentin to inhibit bacterial growth for 14 days. For selection embryogenic callus was transferred to PAW-2 selection medium containing 5 mM D-serine or 5 mM D-alanine respectively. Furthermore calli were sub cultured to fresh corresponding selection PAW-2 medium for maintaining. Embryogenic calli were trans-ferred on PAW-4 selection medium for regeneration 5-6 weeks after transformation. The emerging plantlets were further grown and rooted on PAW-5 hormone free selection medium. Well-developed and rooted on selection putative transgenic regenerants were selected in vitro within. When D-alanine was used as selection compound similar effects in callus growth, shoots regeneration and rooting of transgenic plants or non transgenic escapes selected on D-serine was observed. Both selection agents resulted with 1.1% to 1.2% transformation efficiency and no escape rate (Table 9).
# [4] = construct pRLM167 (dsdA/pat), selection on 5 mM D-serine or 3 mg/l bialaphos
structure (smiles),measurement,setting,value
C[C@H](NC(=O)[C@H](C)NC(=O)[C@@H](N)CCP(C)(=O)O)C(=O)O [bialaphos],ER Escape Rate (% of non-transgenic regenerants out of all selected plants),[1]; [4],59%
same,TE Transformation Efficiency (% of transgenic plants out of the explants),[1]; [4],2.1%
same,embryogenic calli regenerated with plants,"[1]; pRLM167, after 7 weeks of selection, 5 mM D-serine or 3 mg/l bialaphos",38%
CC(C)[C@@H](N)C(=O)O [D-valine],concentration range to which seedlings were sensitive (negative selection),[2],15 to 20 mM
C[C@@H](N)C(=O)O [D-alanine],Regeneration capacity of the calli reduced,wheat callus; 5 mM,70%
same,Regenerated Embryogenic Lines (%),"wheat callus; Bobwhite, 0.5 mM",85%
same,Regenerated Embryogenic Lines (%),"wheat callus; Bobwhite, 3 mM",52%
same,Regenerated Embryogenic Lines (%),"wheat callus; Bobwhite, 5 mM",14%
same,Regenerated Embryogenic Lines (%),"wheat callus; Bobwhite, 10 mM",4%
same,Regenerated Embryogenic Lines (%),"wheat callus; Bobwhite, 15 mM",0%
same,Regenerated Embryogenic Lines (%),"wheat callus; Bobwhite, 25 mM",0%
same,Regenerated Embryogenic Lines (%),"wheat callus; Bobwhite, 50 mM",0%
same,Regenerated Embryogenic Lines (%),"wheat callus; Canon, 0.5 mM",63%
same,Regenerated Embryogenic Lines (%),"wheat callus; Canon, 3 mM",44%
same,Regenerated Embryogenic Lines (%),"wheat callus; Canon, 5 mM",19%
same,Regenerated Embryogenic Lines (%),"wheat callus; Canon, 10 mM",3%
same,Regenerated Embryogenic Lines (%),"wheat callus; Canon, 15 mM",0%
same,Regenerated Embryogenic Lines (%),"wheat callus; Canon, 25 mM",0%
same,Regenerated Embryogenic Lines (%),"wheat callus; Canon, 50 mM",0%
same,lethal dose (LD 100) for regeneration response of callus,wheat callus; tested in both varieties,15 mM
same,root formation of non-transgenic shoots,wheat in vitro shoots; 5 mM,not able to form roots
same,Rooted Shoots (%),"wheat in vitro shoots; Bobwhite, 1 mM",34%
same,Rooted Shoots (%),"wheat in vitro shoots; Bobwhite, 3 mM",13%
same,Rooted Shoots (%),"wheat in vitro shoots; Bobwhite, 5 mM",1%
same,Rooted Shoots (%),"wheat in vitro shoots; Bobwhite, 10 mM",0%
same,Rooted Shoots (%),"wheat in vitro shoots; Bobwhite, 15 mM",0%
same,Rooted Shoots (%),"wheat in vitro shoots; Bobwhite, 25 mM",0%
same,Rooted Shoots (%),"wheat in vitro shoots; Canon, 1 mM",36%
same,Rooted Shoots (%),"wheat in vitro shoots; Canon, 3 mM",11%
same,Rooted Shoots (%),"wheat in vitro shoots; Canon, 5 mM",1%
same,Rooted Shoots (%),"wheat in vitro shoots; Canon, 10 mM",0%
same,Rooted Shoots (%),"wheat in vitro shoots; Canon, 15 mM",0%
same,Rooted Shoots (%),"wheat in vitro shoots; Canon, 25 mM",0%
same,"In vitro germination, Immature Embryos (%)","wheat immature embryos; Bobwhite, 0.5 mM",56%
same,"In vitro germination, Immature Embryos (%)","wheat immature embryos; Bobwhite, 1 mM",0%
same,"In vitro germination, Immature Embryos (%)","wheat immature embryos; Bobwhite, 5 mM",0%
same,"In vitro germination, Immature Embryos (%)","wheat immature embryos; Bobwhite, 10 mM",0%
same,"In vitro germination, Immature Embryos (%)","wheat immature embryos; Canon, 0.5 mM",40%
same,"In vitro germination, Immature Embryos (%)","wheat immature embryos; Canon, 1 mM",0%
same,"In vitro germination, Immature Embryos (%)","wheat immature embryos; Canon, 5 mM",0%
same,"In vitro germination, Immature Embryos (%)","wheat immature embryos; Canon, 10 mM",0%
same,ER (%) Escape Rate,[3],0%
same,TE (%) Transformation Efficiency,[3],1.27%
